Series [1] can be described thus: Largest Soluble Hydrocarbon (LSH) test. The series is classed as physicochemical. The note with it: hydrofluoroolefin:hydrocarbon about 1:1 to 1:2 by weight. On the procedure: Largest Soluble Hydrocarbon (LSH): The LSH of each hydrofluoroolefin compound was determined by mixing the compound with hydrocarbons of varying molecular weight (CnH2n+2, where n=9 to 24) in a hydrofluoroolefin:hydrocarbon ratio of about 1:1 to 1:2 by weight at room temperature (25° C.) and at 50° C. […] A larger value of n is interpreted herein to indicate a greater ability of the hydrofluoroolefin to clean hydrocarbons.
The results presented in Table 2 indicate that the hydrofluoroolefins of the present invention are highly suitable fluids for cleaning applications.

Series [2] is described as follows: Atmospheric lifetime from rates of reaction with hydroxyl radicals. Type of series: physicochemical. The note with it: Degrades by direct photolysis and ozonolysis; value stated as 'Likely'. On the procedure: Atmospheric lifetime: The atmospheric lifetimes of hydrobromofluoroolefin Examples 1-3 were determined from their rates of reaction with hydroxyl radicals. The pseudo-first order rate for the reaction of the gaseous hydrobromofluoroolefin with hydroxyl radical was measured in a series of experiments relative to reference compounds such as chloromethane and ethane. The measurements were performed in a 5.7 L, heated FTIR gas cell equipped with a polished semiconductor-grade quartz window. An Oriel Instruments UV Lamp, Model 66921 equipped with a 480W mercury-xenon bulb was used to generate hydroxyl radicals by photolyzing ozone in the presence of water vapor. The concentrations of the hydrobromofluoroolefin and the reference compound were measured as a function of reaction time using an I-Series FTIR from Midac Corporation. The atmospheric lifetime was calculated from the reaction rates for the hydrobromofluoroolefin relative to the reference compounds and the reported lifetime of the reference compounds as shown below:
where τx is the atmospheric lifetime of hydrobromofluoroolefin, τr is the atmospheric lifetime of the reference compound, and kx and kr are the rate constants for the reaction of hydroxyl radical with hydrobromofluoroolefin and the reference compound, respectively.
The atmospheric lifetimes of Examples 1-3 were determined from their rates of reaction with hydroxyl radicals as described above and are reported in Table 3.

Where [3] appears, read: 25° C., longest hydrocarbon compatible without haze.
The mark [4] stands for this setting: 50° C., >23 = miscible with C23H48 without haze.

Bounds are passed on as bounds.

With `FC(=CBr)C(F)(F)F` [Example 1, 1-bromo-2,3,3,3-tetrafluoroprop-1-ene], the “LSH (n in CnH2n+2)” value was 19 in series [1] (setting [3]) and greater than 23 in series [1] (setting [4]). Further, in series [2], the “Atmospheric Lifetime” value is listed as “ozonolysis. Likely <0.05 years”.

Regarding `FC(=CBr)C(F)(F)C(F)(F)F` [Example 2, 1-bromo-2,3,3,4,4,4-hexafluorobut-1-ene], the figures for the “LSH (n in CnH2n+2)” value in series [1] (setting [3]) and in series [1] (setting [4]) were 19 and greater than 23, respectively. Also, the “Atmospheric Lifetime” value in series [2] is recorded as “ozonolysis. Likely <0.05 years”.

Regarding `FC(=CBr)C(F)F` [Example 3, 1-bromo-2,3,3-trifluoroprop-1-ene], the entries for the “LSH (n in CnH2n+2)” value in series [1] (setting [3]) and in series [1] (setting [4]) were 19 and greater than 23, respectively. The “Atmospheric Lifetime” value in series [2] is on record as “ozonolysis. Likely <0.05 years”.

As to `FC(=CBr)C(F)(F)C(F)(F)C(F)F` [Example 4, I-bromo-2,3,3,4,4,5,5-heptafluoropent-1-ene], the figures for the “LSH (n in CnH2n+2)” value in series [1] (setting [3]) and in series [1] (setting [4]) were 19 and greater than 23, respectively.

For `FC(=CCl)C(F)(F)C(F)(F)C(F)(F)F` [Example 5, 1-chloro-2,3,3,4,4,5,5,5-pent-1-ene], the figures for the “LSH (n in CnH2n+2)” value in series [1] (setting [3]) and in series [1] (setting [4]) were 17 and 22, respectively.

Regarding `FC(=CCl)C(F)(F)C(F)(F)F` [Example 6, 1-chloro-2,3,3,4,4,4-but-1-ene], the “LSH (n in CnH2n+2)” value in series [1] (setting [3]) was determined as 19.

Consider `FC(=CCl)C(F)(F)OC(F)(F)F` [Example 7, 1-chloro-2,3,3-trifluoro-3-(trifluoromethoxy)prop-1-ene], for which the “LSH (n in CnH2n+2)” value in series [1] (setting [3]) was 19; in series [1] (setting [4]), greater than 23.

In the case of `FC(=CCl)N1C(F)(F)C(F)(F)OC(F)(F)C1(F)F` [Example 8, 4-(2-chloro-1-fluoro-vinyl)-2,2,3,3,5,5,6,6-octafluoro-morpholine], the “LSH (n in CnH2n+2)” value came to 14 in series [1] (setting [3]) and 18 in series [1] (setting [4]).

As to `FC(=CCl)C(F)(F)N(C(F)(F)F)C(F)(F)C(F)(F)F` [Example 9, 3-chloro-1,1,2-trifluoro-N-(1,1,2,2,2-pentafluoroethyl)-N-(trifluoromethyl)prop-2-en-1-amine], the “LSH (n in CnH2n+2)” value in series [1] (setting [3]) is on record as 13; in series [1] (setting [4]), 17.

Take `FC(=CCl)C(F)C(F)(F)F` (stereo not drawn) [Example 10, 1-chloro-2,3,4,4,4-pentafluoro-but-1-ene]: the results for the “LSH (n in CnH2n+2)” value in series [1] (setting [3]) and in series [1] (setting [4]) were 19 and greater than 23, respectively.

As to `FC(=CCl)C(F)OC(F)(F)F` (stereo not drawn) [Example 11, 1-chloro-2,3-difluoro-3-(trifluoromethoxy)prop-1-ene], the “LSH (n in CnH2n+2)” value in series [1] (setting [3]) is recorded as 18; in series [1] (setting [4]) it was greater than 23.

These data come from patent US20220041532A1, “HYDROFLUOROOLEFINS AND METHODS OF USING SAME” (3M INNOVATIVE PROPERTIES COMPANY, priority 2018, published 2022).
